Assay results reported in ChEMBL document CHEMBL1201862, “PubChem BioAssay data set” (2004).
Calls of active or inactive are those of the source.

Experiments:
[1] = human group III sPLA2 inhibitors, dose response, biochemical, QFRET, IC50 (AID 743457);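 also: green fluorescence rise as the enzyme cleaves BODIPY PC-A2 in liposomes; potency for inhibition of the enzyme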
[2] = cells; assay type: functional, cell-based; conditions: HEK-CNG
[3] = cells; assay type: functional
[4] = target: Galanin receptor type 3 (Homo sapiens, UniProt O60755); experiment: Fluorescence-based cell-based primary high throughput dose response assay to identify antagonists of the Galanin Receptor 3 (GalR3).; assay type: functional
[5] = THP-1 cell cytotoxicity, dose response, cytotoxicity control for non-replicating M. tuberculosis project (AID 489025); assay type: functional
[6] = target: DNA dC->dU-editing enzyme APOBEC-3G (Homo sapiens, UniProt Q9HC16); experiment: Dose Response confirmation of small molecule APOBEC3G DNA Deaminase Inhibitors via a fluorescence-based single-stranded DNA deaminase assay. [Related pubchem assays (depositor defined):AID493012, AID493028]; assay type: functional
[7] = target: DNA dC->dU-editing enzyme APOBEC-3A (Homo sapiens, UniProt P31941); experiment: APOBEC3A DNA deaminase inhibitors, dose response, biochemical (AID 504722); assay type: functional
[8] = inhibitors of Vif binding to APOBEC3G peptide, primary screen, biochemical, TR-FRET, GST-Vif 1-94, biotin-A3G peptide, dose response retest (AID 1117319); assay type: functional;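 also: TR-FRET signal of purified GST-Vif binding a biotinylated A3G peptide; inhibitors lower the FRET signal by blocking Vif and A3G binding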
[9] = target: Glutathione-S-transferase (Schistosoma japonicum, UniProt Q26513); experiment: biotin-GST/anti-GST TR-FRET signal inhibitors, dose response, artefact control for Vif-APOBEC3G degradation inhibitor project, biochemical (AID 1117362); assay type: functional
[10] = cells; assay type: functional, cell-based
[11] = target: T1, Nuclear receptor subfamily 0 group B member 1 (Homo sapiens, UniProt P51843); assay type: functional, cell-based;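 also: HEK293T cells transfected with SF-1 and DAX-1 plus StAR promoter luciferase reporter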
T1 sequence (P51843 whole entry): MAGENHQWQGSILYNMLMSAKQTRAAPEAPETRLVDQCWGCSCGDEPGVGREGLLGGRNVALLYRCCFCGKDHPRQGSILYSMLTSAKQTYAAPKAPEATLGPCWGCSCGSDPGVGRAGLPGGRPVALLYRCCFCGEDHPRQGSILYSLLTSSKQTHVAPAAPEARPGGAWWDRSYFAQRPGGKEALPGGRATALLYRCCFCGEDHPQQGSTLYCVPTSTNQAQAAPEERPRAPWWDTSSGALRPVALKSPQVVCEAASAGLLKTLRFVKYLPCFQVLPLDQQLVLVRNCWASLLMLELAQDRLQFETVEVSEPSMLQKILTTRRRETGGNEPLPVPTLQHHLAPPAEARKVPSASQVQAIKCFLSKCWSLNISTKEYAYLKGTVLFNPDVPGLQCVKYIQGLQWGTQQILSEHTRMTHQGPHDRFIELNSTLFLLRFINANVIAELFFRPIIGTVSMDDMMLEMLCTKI

[12] = HeLa 4N DNA content increase, dose response, cell-based, IC50 (AID 1117351); assay type: functional
[13] = HCT116 cell viability decrease, GSK3B pretreatment – CellTiter-Glo, IC50, dose response (AID 1117339); assay type: functional; conditions: HCT-116
[14] = RKO cell viability reduction, dose response, CellTiter-Glo luminescence (AID 1117322); assay type: functional
[15] = SNU-C1 cell viability reduction, dose response, CellTiter-Glo luminescence (AID 1117323); assay type: functional, cell-based
[16] = cytotoxicity toward Colo320 cells – cell-based, CellTiter-Glo luminescence, IC50, dose response (AID 1117334); assay type: functional; conditions: COLO 320
[17] = HeLa 2N DNA content increase, dose response, cell-based, IC50 (AID 1117349); assay type: functional
[18] = CellTiter-Glo luminescent dose response of DLD-1 viability loss (AID 1117352); assay type: functional
[19] = cytotoxicity toward HT-29 cells – cell-based, CellTiter-Glo luminescence, IC50, dose response (AID 1117330); assay type: functional
[20] = Concentration-dependent survival of SW480 colon cancer line, luminescence detection with CellTiter-Glo, half-maximal inhibitory concentration (AID 1117338); assay type: functional
[21] = cytotoxicity toward HCT116 cells – cell-based, CellTiter-Glo luminescence, IC50, dose response (AID 1117332); assay type: functional; conditions: HCT-116
[22] = target: Paired box protein Pax-8 (Homo sapiens, UniProt Q06710); experiment: inhibitors of PAX8-driven TPO luciferase reporter, dose response, RMG-I cells, cherry-pick (AID 687027); assay type: functional, cell-based;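 also: luciferase reporter driven by Pax8 target thyroperoxidase promoter measured by SteadyGlo luminescence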
[23] = cytotoxicity in OV-90 ovarian cancer cells, dose response, PAX8 inhibitor project, cell-based, plate reader, dry powder, SA8 (AID 743149); assay type: functional
[24] = inhibitors of HIV Env-driven cell fusion, dose response, cherry-pick (AID 652057); assay type: functional, cell-based
[25] = PAX5 activity inhibitors, dose response, selectivity assay for PAX8 inhibitor project, cell-based, plate reader, dry powder samples (AID 743047); assay type: functional;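 also: HEK293 cells carrying a Pax5 driven CD19 promoter luciferase reporter; potency of inhibitors that lower reporter luminescence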
[26] = cytotoxicity dependent on PAX8, dose response, cell-based, plate reader, dry powder (AID 743049); assay type: functional
[27] = cytotoxicity in OVCAR4 cells, dose response, cytotoxicity control for PAX8 inhibitor project, cell-based, plate reader, dry powder, SA11 (AID 743150); assay type: functional; conditions: OVCAR-4
[28] = inhibitors of clade B AD8 Env fusion, dose response, cell-based, cherry-pick (AID 652062); assay type: functional;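 also: luciferase signal from cell-cell fusion driven by HIV-1 clade B AD8 Env; potency is for inhibitors of fusion seen as a drop in luminescence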
[29] = cytotoxicity in COV434 cells, dose response, cytotoxicity control for PAX8 inhibitor project, cell-based, plate reader, dry powder, SA7 (AID 743145); assay type: functional
[30] = PAX2 cell-based inhibition, dose response, selectivity assay for PAX8 inhibitor project, plate reader, dry powder samples (AID 743048); assay type: functional;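 also: HEK293 cells carrying a WT1 promoter luciferase reporter driven by expressed Pax2; potency is for inhibition of Pax2 driven reporter signal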
[31] = non-specific cell cytotoxicity, dose response, cytotoxicity control for PAX8 inhibitor project, plate reader, dry powder samples (AID 743021); assay type: functional, cell-based
[32] = NIH:OVCAR-3 ovarian cancer cell cytotoxicity, dose response, PAX8 inhibitor project, plate reader, dry powder samples (AID 743044); assay type: functional, cell-based
[33] = P. falciparum Dd2 blood-stage growth inhibition, dose response, SYBR Green fluorescence, erythrocytes, dry powder, set 2 (AID 1159574); assay type: functional, cell-based
[34] = cytotoxicity in OVCAR8 ovarian cancer cells, dose response, PAX8 project, cell-based, plate reader, dry powder samples (AID 743197); assay type: functional; conditions: OVCAR-8
[35] = A2780 ovarian cancer cell cytotoxicity, dose response, cytotoxicity control, plate reader, dry powder samples (AID 743046); assay type: functional, cell-based
[36] = IGROV1 ovarian cancer cell cytotoxicity, dose response, PAX8 inhibitor project, plate reader, dry powder samples (AID 743043); assay type: functional, cell-based; conditions: IGROV-1
[37] = IOSE-T80 ovarian epithelial cell cytotoxicity, dose response, cytotoxicity control for PAX8 inhibitor project, plate reader, dry powder samples (AID 743045); assay type: functional, cell-based
[38] = Late stage assay provider results from the probe development effort to identify selective inhibitors of heat shock protein 90 (HSP90): Absorbance-based cell proliferation assay in SKBR3 cells.; assay type: functional; conditions: SK-BR-3
[39] = Late stage assay provider results from the probe development effort to identify selective inhibitors of heat shock protein 90 (HSP90): Absorbance-based cell proliferation assay in MCF7 cells.; assay type: functional
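For EC50 in this document: target is galanin receptor GalR3 read with a cAMP biosensor in HEK293 cells.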

Chain of Paired box protein Pax-8 (Q06710 whole entry): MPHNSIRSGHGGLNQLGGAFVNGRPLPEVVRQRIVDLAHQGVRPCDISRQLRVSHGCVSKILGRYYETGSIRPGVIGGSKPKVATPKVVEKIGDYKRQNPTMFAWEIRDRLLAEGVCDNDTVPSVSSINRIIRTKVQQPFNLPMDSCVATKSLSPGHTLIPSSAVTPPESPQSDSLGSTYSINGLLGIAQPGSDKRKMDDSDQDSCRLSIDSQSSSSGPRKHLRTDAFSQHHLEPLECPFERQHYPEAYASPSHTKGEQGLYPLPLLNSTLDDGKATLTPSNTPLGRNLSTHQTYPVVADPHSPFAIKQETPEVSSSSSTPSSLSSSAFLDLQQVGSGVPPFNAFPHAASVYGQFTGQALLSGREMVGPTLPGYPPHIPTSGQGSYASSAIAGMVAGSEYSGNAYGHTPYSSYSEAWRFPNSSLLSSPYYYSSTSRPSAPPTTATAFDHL
Chain of Galanin receptor type 3 (O60755 whole entry): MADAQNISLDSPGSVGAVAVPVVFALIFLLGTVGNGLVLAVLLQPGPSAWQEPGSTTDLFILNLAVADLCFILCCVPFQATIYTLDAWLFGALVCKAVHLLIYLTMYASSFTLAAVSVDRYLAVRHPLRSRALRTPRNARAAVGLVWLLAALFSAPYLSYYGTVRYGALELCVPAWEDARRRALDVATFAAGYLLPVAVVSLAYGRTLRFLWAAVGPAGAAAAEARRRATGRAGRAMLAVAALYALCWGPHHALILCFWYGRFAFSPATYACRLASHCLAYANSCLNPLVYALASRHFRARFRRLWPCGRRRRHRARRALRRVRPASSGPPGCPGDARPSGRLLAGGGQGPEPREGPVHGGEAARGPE
Chain of Glutathione-S-transferase (Q26513 whole entry): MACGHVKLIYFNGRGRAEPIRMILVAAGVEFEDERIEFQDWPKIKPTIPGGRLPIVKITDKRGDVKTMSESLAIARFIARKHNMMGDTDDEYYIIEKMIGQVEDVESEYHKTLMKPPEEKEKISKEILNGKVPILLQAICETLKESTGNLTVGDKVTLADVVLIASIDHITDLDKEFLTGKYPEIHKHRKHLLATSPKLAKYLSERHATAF
Chain of DNA dC->dU-editing enzyme APOBEC-3A (P31941 whole entry): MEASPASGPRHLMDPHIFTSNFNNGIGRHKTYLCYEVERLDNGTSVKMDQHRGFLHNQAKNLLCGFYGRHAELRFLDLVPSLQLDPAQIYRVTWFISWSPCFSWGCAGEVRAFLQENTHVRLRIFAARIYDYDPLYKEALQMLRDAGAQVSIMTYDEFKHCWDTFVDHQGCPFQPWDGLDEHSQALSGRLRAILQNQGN
Chain of DNA dC->dU-editing enzyme APOBEC-3G (Q9HC16 whole entry): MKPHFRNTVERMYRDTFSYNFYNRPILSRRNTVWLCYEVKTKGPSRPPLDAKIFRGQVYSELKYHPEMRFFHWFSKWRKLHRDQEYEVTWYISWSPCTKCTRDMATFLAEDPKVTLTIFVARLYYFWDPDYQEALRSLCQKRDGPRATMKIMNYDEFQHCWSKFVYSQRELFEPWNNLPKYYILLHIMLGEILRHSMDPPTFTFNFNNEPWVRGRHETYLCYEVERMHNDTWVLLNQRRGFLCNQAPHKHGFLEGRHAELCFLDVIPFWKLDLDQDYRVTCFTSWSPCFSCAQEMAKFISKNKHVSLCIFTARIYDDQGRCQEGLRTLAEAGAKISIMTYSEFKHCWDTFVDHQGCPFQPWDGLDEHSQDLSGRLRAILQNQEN

SMILES: Cc1cccc(NN=C(S)Nc2c(C)cccc2C)c1
- IC50 [1]: > 122 µM (inactive)

SMILES: CC(C)(C)NC(=O)COC(=O)c1snc(C(=O)NC2CCCCC2)c1N
- EC50 [2]: > 29.9 µM (inactive)
- IC50 [3]: 4.33 µM (active)
- IC50 [4]: 1.95 µM (active)
- CC50 [5]: > 40 µM (active)

SMILES: N#Cc1cc(-c2ccccc2)oc1NC(=O)c1ccco1
- EC50 [2]: > 29.9 µM (inactive)
- IC50 [4]: 8.23 µM (active)

SMILES: CCn1c(S)nnc1-c1cc2c(C(F)(F)F)nn(C)c2s1
- IC50 [6]: 3.06 µM (active)
- IC50 [7]: > 100 µM (inactive)
- IC50 [1]: > 122 µM (inactive)

SMILES: CCOc1ccc(N/C([S-])=C(/C(=O)c2ccc(C)c([N+](=O)[O-])c2)[n+]2ccccc2)cc1
- IC50 [8]: > 100 µM (active)

SMILES: O=C(COC(=O)C12CC3CC(CC(Br)(C3)C1)C2)Nc1ccc2[nH]c(O)nc2c1
- IC50 [8]: > 100 µM (active)
- IC50 [9]: 73.5 µM (active)

SMILES: COc1ccc(C=C2CCc3ccccc3C2=O)cc1
- IC50 [10]: > 67.6 µM (inactive)
- IC50 [11]: > 67.6 µM (inactive)

SMILES: CCCCCCCCCCCC[N+](C)(C)Cc1ccccc1
- IC50 [12]: > 10 µM (inactive)
- IC50 [13]: > 20 µM (inactive)
- IC50 [14]: 3.07 µM (active)
- IC50 [15]: 0.02 µM (active)
- IC50 [16]: 8.99 µM (inactive)
- IC50 [17]: > 10 µM (inactive)
- IC50 [18]: 0.738 µM (active)
- IC50 [19]: 0.465 µM (active)
- IC50 [20]: 7.95 µM (inactive)
- IC50 [21]: 1.96 µM (active)

SMILES: N#C[C@@H]1[C@H](c2ccc(-c3ccccc3F)cc2)[C@@H](CO)N1C(=O)Cc1ccccc1
- AC50 [22]: 17.3 µM (active)
- AC50 [23]: 56.2 µM (active)
- AC50 [24]: 35 µM (active)
- AC50 [25]: 26.2 µM (active)
- AC50 [26]: 20.3 µM (active)
- AC50 [27]: 30.4 µM (active)
- AC50 [28]: 19.8 µM (active)
- AC50 [29]: > 70 µM (inactive)
- AC50 [30]: 23.8 µM (active)

SMILES: COc1ccc(NC(=O)N2CCCCN3[C@H](C2)[C@@H](c2ccc(C#Cc4ccccc4)cc2)[C@@H]3CO)cc1
- AC50 [22]: 5.67 µM (active)
- AC50 [31]: 29.7 µM (active)
- AC50 [32]: 58.4 µM (active)
- AC50 [33]: 2.1 µM (active)
- AC50 [34]: 39.7 µM (active)

SMILES: Cc1ccc(S(=O)(=O)N(C)C[C@@H]2Oc3ccc(NC(=O)Nc4ccc(C(F)(F)F)cc4)cc3CC(=O)N([C@@H](C)CO)C[C@@H]2C)cc1
- AC50 [22]: 0.799 µM (active)
- AC50 [35]: 3.88 µM (active)
- AC50 [36]: 1.16 µM (active)
- AC50 [32]: 0.584 µM (active)
- AC50 [37]: 0.483 µM (active)
- AC50 [34]: 5.91 µM (active)

SMILES: COc1ccc2cc(Br)c(=O)oc2c1
- IC50 [38]: > 100 µM (inactive)
- IC50 [39]: > 100 µM (inactive)

SMILES: C[C@H](O)CN(C)C
- IC50 [13]: > 20 µM (inactive)
- IC50 [14]: > 20 µM (inactive)
- IC50 [15]: > 20 µM (inactive)
- IC50 [16]: > 20 µM (inactive)
- IC50 [18]: > 20 µM (inactive)
- IC50 [19]: > 20 µM (inactive)
- IC50 [20]: > 20 µM (inactive)
- IC50 [21]: > 20 µM (inactive)

SMILES: CCOc1cn(C)c(C(=O)Nc2ccccc2)cc1=O
- IC50 [38]: > 100 µM (inactive)
- IC50 [39]: > 100 µM (inactive)

SMILES: NCCNc1ccc(NCCN)c2c1C(=O)c1ccncc1C2=O [PIXANTRONE]
- IC50 [12]: 0.0483 µM (active)
- IC50 [17]: 0.042 µM (active)
